Test results reported in patent US8192962B2, “Processes for detecting toxic substances” (Daikin Industries, Ltd., priority 2001, dated 2012).

Tested on: Metabolism protein genes
Assay: DNA chip mRNA expression in yeast, metabolism protein genes (Table 7)
Type: cell-based, Saccharomyces cerevisiae S288C
Experimental: Yeast (Saccharomyces cerevisiae S288C (α SUC2mal mel gap2 CUP1)) were incubated at 25° C. on YPD medium (yeast extract 1%, polypepton 2%, glucose 2%). One of toxic chemical substances was added to the cells at logarithmic growth phase, and the cells were further incubated for two hours. Cells were cultured without any chemical substance in the same condition, and were used as control. Concentrations of the chemical substances were defined to inhibit the growth of the yeast but not lead to death.
After completion of the incubation, the culture was centrifuged to collect the cells. To the cells, sodium acetate buffer (50 mM sodium acetate, 10 mM EDTA, 1% SDS) was added, and the mixture was shaken at 65° C. for five minutes, followed by returning to room temperature, and obtaining the supernatant, of which the procedures were repeated two times. To the supernatant, ½ amount of a solution of phenol/chloroform was added, and the mixture was centrifuged to give a supernatant, which was added with an equal amount of chloroform, and the mixture was centrifuged to give a supernatant. To the supernatant, an equal amount of isopropanol containing 0.3 M sodium acetate was added, and the mixture was allowed to stand at room temperature for 30 minutes, after which the mixture was centrifuged to give a sediment of the whole RNAs. Seventy % ethanol was added to the sediment, and the mixture was again centrifuged to give a sediment, which was then dried and dissolved in water. mRNA was isolated from the whole RNAs as followings. In view of the fact that a poly A chain is attached to the 3′ terminus of mRNA, a polynucleotide having a poly T structure which was immobilized on the surface of latex beads was used to trap the mRNA, and then the mRNA was washed and eluted with spine column (Oligotex-dT30<Super>mRNA Purification Kit, Takara). Reverse transcription of the mRNA was conducted with a reverse transcriptase (Super Script II Reverse Transcriptase; catalogue No. 18064-014, GibcoBRL) using fluorescence-labeled nucleotides to give cDNAs that were introduced with Cy3-dUTP or Cy5-dUTP during the reverse transcription.
The labeled cDNAs were dissolved in TE buffer (10mM Tris-HCl/1 mM EDTA, pH8.0), and the solution was dropped on the DNA chip containing the whole genes of yeast (DNA Chip Research Inc. Japan) so that the cDNAs were hybridized on the DNA chip at 65° C. for over 12 hours. The fluoresces intensity of the DNA chip was read with a scanner, and the ratio relative to the fluorescence intensity resulting from the absence of chemical substance was estimated as the following, which is shown in Tables 1 to 9: […]

C[S+](C)[O-] [(15), dimethylsulfoxide]
The level of expressed mRNA in the presence of chemical substance/The level of expressed mRNA in the absence of chemical substance (yeast gene YJL099W): 1.4 | level of expressed mRNA in the presence/in the absence of chemical substance (yeast gene YJL121C): 1.0 | level of expressed mRNA in the presence/in the absence of chemical substance (yeast gene YJL167W): 1.6 | The level of expressed mRNA in the presence of chemical substance/The level of expressed mRNA in the absence of chemical substance (yeast gene YJL172W): 1.2 | level of expressed mRNA in the presence/in the absence of chemical substance (yeast gene YJL216C): 1.2 | level of expressed mRNA in the presence/in the absence of chemical substance (yeast gene YJR077C): 1.5 | The level of expressed mRNA in the presence of chemical substance/The level of expressed mRNA in the absence of chemical substance (yeast gene YJR137C): 1.0 | level of expressed mRNA in the presence/in the absence of chemical substance (yeast gene YJR143C): 1.1 | The level of expressed mRNA in the presence of chemical substance/The level of expressed mRNA in the absence of chemical substance (yeast gene YKL035W): 1.0 | level of expressed mRNA in the presence/in the absence of chemical substance (yeast gene YKL060C): 1.6 | The level of expressed mRNA in the presence of chemical substance/The level of expressed mRNA in the absence of chemical substance (yeast gene YKL091C): 1.1 | The level of expressed mRNA in the presence of chemical substance/The level of expressed mRNA in the absence of chemical substance (yeast gene YKL104C): 3.3 | level of expressed mRNA in the presence/in the absence of chemical substance (yeast gene YKL148C): 0.6 | The level of expressed mRNA in the presence of chemical substance/The level of expressed mRNA in the absence of chemical substance (yeast gene YKL152C): 1.8 | level of expressed mRNA in the presence/in the absence of chemical substance (yeast gene YKL157W): 1.2 | The level of expressed mRNA in the presence of chemical substance/The level of expressed mRNA in the absence of chemical substance (yeast gene YKL213C): 1.1 | The level of expressed mRNA in the presence of chemical substance/The level of expressed mRNA in the absence of chemical substance (yeast gene YKL215C): 0.9 | level of expressed mRNA in the presence/in the absence of chemical substance (yeast gene YKR034W): 1.7 | level of expressed mRNA in the presence/in the absence of chemical substance (yeast gene YLR006C): 0.9 | level of expressed mRNA in the presence/in the absence of chemical substance (yeast gene YLR044C): 2.2 | level of expressed mRNA in the presence/in the absence of chemical substance (yeast gene YLR056W): 0.9 | level of expressed mRNA in the presence/in the absence of chemical substance (yeast gene YLR058C): 1.5 | level of expressed mRNA in the presence/in the absence of chemical substance (yeast gene YLR081W): 0.7 | level of expressed mRNA in the presence/in the absence of chemical substance (yeast gene YLR089C): 1.7 | The level of expressed mRNA in the presence of chemical substance/The level of expressed mRNA in the absence of chemical substance (yeast gene YLR180W): 2.5 | level of expressed mRNA in the presence/in the absence of chemical substance (yeast gene YLR284C): 1.0 | The level of expressed mRNA in the presence of chemical substance/The level of expressed mRNA in the absence of chemical substance (yeast gene YLR299W): 1.5 | The level of expressed mRNA in the presence of chemical substance/The level of expressed mRNA in the absence of chemical substance (yeast gene YLR300W): 2.7 | level of expressed mRNA in the presence/in the absence of chemical substance (yeast gene YLR304C): 1.6 | The level of expressed mRNA in the presence of chemical substance/The level of expressed mRNA in the absence of chemical substance (yeast gene YLR307W): 3.9 | The level of expressed mRNA in the presence of chemical substance/The level of expressed mRNA in the absence of chemical substance (yeast gene YLR348C): 2.4 | level of expressed mRNA in the presence/in the absence of chemical substance (yeast gene YLR354C): 2.4 | level of expressed mRNA in the presence/in the absence of chemical substance (yeast gene YLR372W): 0.7 | level of expressed mRNA in the presence/in the absence of chemical substance (yeast gene YML022W): 0.6 | The level of expressed mRNA in the presence of chemical substance/The level of expressed mRNA in the absence of chemical substance (yeast gene YML054C): 1.1 | The level of expressed mRNA in the presence of chemical substance/The level of expressed mRNA in the absence of chemical substance (yeast gene YML070W): 0.9 | level of expressed mRNA in the presence/in the absence of chemical substance (yeast gene YMR011W): 0.6 | level of expressed mRNA in the presence/in the absence of chemical substance (yeast gene YMR015C): 1.2 | level of expressed mRNA in the presence/in the absence of chemical substance (yeast gene YMR083W): 1.3 | The level of expressed mRNA in the presence of chemical substance/The level of expressed mRNA in the absence of chemical substance (yeast gene YMR105C): 0.9 | The level of expressed mRNA in the presence of chemical substance/The level of expressed mRNA in the absence of chemical substance (yeast gene YMR189W): 5.6 | level of expressed mRNA in the presence/in the absence of chemical substance (yeast gene YMR205C): 0.9 | level of expressed mRNA in the presence/in the absence of chemical substance (yeast gene YMR261C): 0.8 | The level of expressed mRNA in the presence of chemical substance/The level of expressed mRNA in the absence of chemical substance (yeast gene YMR271C): 0.6 | The level of expressed mRNA in the presence of chemical substance/The level of expressed mRNA in the absence of chemical substance (yeast gene YMR296C): 6.7 | level of expressed mRNA in the presence/in the absence of chemical substance (yeast gene YMR323W): 37.3 | The level of expressed mRNA in the presence of chemical substance/The level of expressed mRNA in the absence of chemical substance (yeast gene YNL012W): 1.6 | level of expressed mRNA in the presence/in the absence of chemical substance (yeast gene YNL025C): 1.4 | The level of expressed mRNA in the presence of chemical substance/The level of expressed mRNA in the absence of chemical substance (yeast gene YNL037C): 0.9 | The level of expressed mRNA in the presence of chemical substance/The level of expressed mRNA in the absence of chemical substance (yeast gene YNL045W): 0.8 | The level of expressed mRNA in the presence of chemical substance/The level of expressed mRNA in the absence of chemical substance (yeast gene YNL104C): 2.5 | The level of expressed mRNA in the presence of chemical substance/The level of expressed mRNA in the absence of chemical substance (yeast gene YNL106C): 3.3 | level of expressed mRNA in the presence/in the absence of chemical substance (yeast gene YNL192W): 2.1 | The level of expressed mRNA in the presence of chemical substance/The level of expressed mRNA in the absence of chemical substance (yeast gene YNL231C): 0.9 | The level of expressed mRNA in the presence of chemical substance/The level of expressed mRNA in the absence of chemical substance (yeast gene YNL331C): 2.3 | The level of expressed mRNA in the presence of chemical substance/The level of expressed mRNA in the absence of chemical substance (yeast gene YNL332W): 5.4 | The level of expressed mRNA in the presence of chemical substance/The level of expressed mRNA in the absence of chemical substance (yeast gene YNR002C): 1.0 | The level of expressed mRNA in the presence of chemical substance/The level of expressed mRNA in the absence of chemical substance (yeast gene YNR019W): 1.6 | The level of expressed mRNA in the presence of chemical substance/The level of expressed mRNA in the absence of chemical substance (yeast gene YNR033W): 1.3 | The level of expressed mRNA in the presence of chemical substance/The level of expressed mRNA in the absence of chemical substance (yeast gene YNR059W): 1.0 | The level of expressed mRNA in the presence of chemical substance/The level of expressed mRNA in the absence of chemical substance (yeast gene YOL058W): 2.7 | level of expressed mRNA in the presence/in the absence of chemical substance (yeast gene YOL086C): 1.6 | level of expressed mRNA in the presence/in the absence of chemical substance (yeast gene YOL108C): 1.5 | level of expressed mRNA in the presence/in the absence of chemical substance (yeast gene YOL116W): 0.7 | The level of expressed mRNA in the presence of chemical substance/The level of expressed mRNA in the absence of chemical substance (yeast gene YOL126C): 1.4 | The level of expressed mRNA in the presence of chemical substance/The level of expressed mRNA in the absence of chemical substance (yeast gene YOL143C): 1.0 | The level of expressed mRNA in the presence of chemical substance/The level of expressed mRNA in the absence of chemical substance (yeast gene YOL153C): 1.2 | level of expressed mRNA in the presence/in the absence of chemical substance (yeast gene YOL156W): 1.9 | level of expressed mRNA in the presence/in the absence of chemical substance (yeast gene YOR002W): 1.5 | level of expressed mRNA in the presence/in the absence of chemical substance (yeast gene YOR085W): 1.8 | level of expressed mRNA in the presence/in the absence of chemical substance (yeast gene YOR103C): 1.4 | level of expressed mRNA in the presence/in the absence of chemical substance (yeast gene YOR108W): 0.7 | level of expressed mRNA in the presence/in the absence of chemical substance (yeast gene YOR128C): 1.6 | The level of expressed mRNA in the presence of chemical substance/The level of expressed mRNA in the absence of chemical substance (yeast gene YOR130C): 1.0 | The level of expressed mRNA in the presence of chemical substance/The level of expressed mRNA in the absence of chemical substance (yeast gene YOR136W): 1.2 | level of expressed mRNA in the presence/in the absence of chemical substance (yeast gene YOR142W): 1.1 | level of expressed mRNA in the presence/in the absence of chemical substance (yeast gene YOR176W): 0.8 | level of expressed mRNA in the presence/in the absence of chemical substance (yeast gene YOR178C): 1.1 | level of expressed mRNA in the presence/in the absence of chemical substance (yeast gene YOR251C): 0.6 | The level of expressed mRNA in the presence of chemical substance/The level of expressed mRNA in the absence of chemical substance (yeast gene YOR336W): 0.6 | level of expressed mRNA in the presence/in the absence of chemical substance (yeast gene YOR348C): 1.6 | The level of expressed mRNA in the presence of chemical substance/The level of expressed mRNA in the absence of chemical substance (yeast gene YPL017C): 1.0 | level of expressed mRNA in the presence/in the absence of chemical substance (yeast gene YPL028W): 0.6 | level of expressed mRNA in the presence/in the absence of chemical substance (yeast gene YPL057C): 1.1 | level of expressed mRNA in the presence/in the absence of chemical substance (yeast gene YPL135W): 1.5 | level of expressed mRNA in the presence/in the absence of chemical substance (yeast gene YPL148C): 0.6 | level of expressed mRNA in the presence/in the absence of chemical substance (yeast gene YPR113W): 1.0 | level of expressed mRNA in the presence/in the absence of chemical substance (yeast gene YPR165W): 0.9 | The level of expressed mRNA in the presence of chemical substance/The level of expressed mRNA in the absence of chemical substance (yeast gene YPR167C): 0.9 | level of expressed mRNA in the presence/in the absence of chemical substance (yeast gene YPR183W): 0.9
